Test results published in PubChem BioAssay AID2060623 (Molecular Pharmacology Branch, DTP, NCI, 2025).

Tested on: 227483-062-R1-J1-PDC complex spheroids with HUVEC/MSC, viability
Assay: Anticancer human tumor 227483-062-R1-J1-PDC patient-derived pancreatic carcinoma cell line growth inhibition [CLK]
Settings: for IC50: curve of first compound; for viability, T/C: stronger effect = lower value
Method in brief: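 Patient-derived tumor cells grown as complex spheroids with HUVEC endothelial cells and mesenchymal stem cells, treated with drug combinations. Concentrations descend in half-log steps from near clinical Cmax, or from 10 microM if Cmax unknown.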

[1] = second compound 0.0316 µM, first compound 0.0316 µM
[2] = second compound 0.0316 µM, first compound 0.1 µM
[3] = second compound 0.0316 µM, first compound 0.316 µM
[4] = second compound 0.0316 µM, first compound 1 µM
[5] = second compound 0.0316 µM, first compound 3.16 µM
[6] = second compound 0.0316 µM, first compound 10 µM
[7] = second compound 0.1 µM, first compound 0.0316 µM
[8] = second compound 0.1 µM, first compound 0.1 µM
[9] = second compound 0.1 µM, first compound 0.316 µM
[10] = second compound 0.1 µM, first compound 1 µM
[11] = second compound 0.1 µM, first compound 3.16 µM
[12] = second compound 0.1 µM, first compound 10 µM
[13] = second compound 0.316 µM, first compound 0.0316 µM
[14] = second compound 0.316 µM, first compound 0.1 µM
[15] = second compound 0.316 µM, first compound 0.316 µM
[16] = second compound 0.316 µM, first compound 1 µM
[17] = second compound 0.316 µM, first compound 3.16 µM
[18] = second compound 0.316 µM, first compound 10 µM
[19] = second compound 1 µM, first compound 0.0316 µM
[20] = second compound 1 µM, first compound 0.1 µM
[21] = second compound 1 µM, first compound 0.316 µM
[22] = second compound 1 µM, first compound 1 µM
[23] = second compound 1 µM, first compound 3.16 µM
[24] = second compound 1 µM, first compound 10 µM
[25] = second compound 3.16 µM, first compound 0.0316 µM
[26] = second compound 3.16 µM, first compound 0.1 µM
[27] = second compound 3.16 µM, first compound 0.316 µM
[28] = second compound 3.16 µM, first compound 1 µM
[29] = second compound 3.16 µM, first compound 3.16 µM
[30] = second compound 3.16 µM, first compound 10 µM
[31] = second compound 10 µM, first compound 0.0316 µM
[32] = second compound 10 µM, first compound 0.1 µM
[33] = second compound 10 µM, first compound 0.316 µM
[34] = second compound 10 µM, first compound 1 µM
[35] = second compound 10 µM, first compound 3.16 µM
[36] = second compound 10 µM, first compound 10 µM
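Also: spheroids exposed to compounds for seven days before readout.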
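For viability, T/C in this document: percent of DMSO vehicle control luminescence as 100% viability.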

Structure (SMILES): COc1ccc([C@@H](O)c2cc(-c3ncnc4cc(N5CCOCC5)ccc34)c(F)cc2Cl)nn1 + CNC(=O)c1ccc(Nc2nc(OC3CCCC3)c3c(-c4ccc5nc(C)oc5c4)c[nH]c3n2)c(OC)c1
- IC50 (second compound 0.0316 µM): > 10000 nM
- IC50 (second compound 0.1 µM): > 10000 nM
- IC50 (second compound 0.316 µM): > 10000 nM
- IC50 (second compound 1 µM): 750 nM
- IC50 (second compound 3.16 µM): < 31.6 nM
- IC50 (second compound 10 µM): < 31.6 nM
- viability, T/C [1]: 94.6%
- viability, T/C [2]: 85.9%
- viability, T/C [3]: 108%
- viability, T/C [4]: 94.5%
- viability, T/C [5]: 73.1%
- viability, T/C [6]: 59.8%
- viability, T/C [7]: 98.6%
- viability, T/C [8]: 86.8%
- viability, T/C [9]: 76.7%
- viability, T/C [10]: 75.5%
- viability, T/C [11]: 58.5%
- viability, T/C [12]: 53.5%
- viability, T/C [13]: 86.2%
- viability, T/C [14]: 83.1%
- viability, T/C [15]: 72.1%
- viability, T/C [16]: 56.5%
- viability, T/C [17]: 63.5%
- viability, T/C [18]: 53.7%
- viability, T/C [19]: 68.1%
- viability, T/C [20]: 64.3%
- viability, T/C [21]: 62.8%
- viability, T/C [22]: 42.5%
- viability, T/C [23]: 48%
- viability, T/C [24]: 46.7%
- viability, T/C [25]: 42%
- viability, T/C [26]: 41.5%
- viability, T/C [27]: 42.1%
- viability, T/C [28]: 45.7%
- viability, T/C [29]: 48.3%
- viability, T/C [30]: 26.2%
- viability, T/C [31]: 36.1%
- viability, T/C [32]: 38.2%
- viability, T/C [33]: 31.9%
- viability, T/C [34]: 39%
- viability, T/C [35]: 38.6%
- viability, T/C [36]: 27.9%

Structure (SMILES): COc1cccc2c1C(=O)c1c(O)c3c(c(O)c1C2=O)CC(O)(C(=O)CO)CC3OC1CC(N)C(O)C(C)O1 (centres undefined) + CNC(=O)c1ccc(Nc2nc(OC3CCCC3)c3c(-c4ccc5nc(C)oc5c4)c[nH]c3n2)c(OC)c1
- IC50 (second compound 0.0316 µM): 277 nM
- IC50 (second compound 0.1 µM): 229 nM
- IC50 (second compound 0.316 µM): 177 nM
- IC50 (second compound 1 µM): 114 nM
- IC50 (second compound 3.16 µM): < 31.6 nM
- IC50 (second compound 10 µM): < 31.6 nM
- viability, T/C [1]: 84.4%
- viability, T/C [2]: 91.2%
- viability, T/C [3]: 43.6%
- viability, T/C [4]: 19.9%
- viability, T/C [5]: 1.83%
- viability, T/C [6]: 10.3%
- viability, T/C [7]: 81.2%
- viability, T/C [8]: 79.9%
- viability, T/C [9]: 38.1%
- viability, T/C [10]: 15%
- viability, T/C [11]: 2.41%
- viability, T/C [12]: 10.7%
- viability, T/C [13]: 81.7%
- viability, T/C [14]: 66.2%
- viability, T/C [15]: 33.8%
- viability, T/C [16]: 9.76%
- viability, T/C [17]: 2.28%
- viability, T/C [18]: 9.14%
- viability, T/C [19]: 66.9%
- viability, T/C [20]: 53.5%
- viability, T/C [21]: 20.1%
- viability, T/C [22]: 4.28%
- viability, T/C [23]: 2.52%
- viability, T/C [24]: 5.99%
- viability, T/C [25]: 45.1%
- viability, T/C [26]: 35.9%
- viability, T/C [27]: 11.5%
- viability, T/C [28]: 2.71%
- viability, T/C [29]: 3.57%
- viability, T/C [30]: 5.5%
- viability, T/C [31]: 41.7%
- viability, T/C [32]: 28.1%
- viability, T/C [33]: 11.3%
- viability, T/C [34]: 2.5%
- viability, T/C [35]: 3.15%
- viability, T/C [36]: 6.7%
